This note sets out measurements from US20110250184A1, “METHODS FOR DETERMINING EFFICACY OF A THERAPEUTIC REGIMEN AGAINST DELETERIOUS EFFECTS OF CYTOTOXIC AGENTS IN HUMAN” (priority 2008, published 2011).

In this assay the test system is human bone marrow cells. Nature of the assay: In vitro radiation protection of human bone marrow cells (methocult CFU). Format: cell-based. As for the experimental part: FIG. 3. In vitro radiation protection of human bone marrow cells. Human bone marrow cells were treated with increasing concentrations of ON 01210.Na for 3 hours, and then irradiated with increasing doses of ionizing radiation. The cells were plated into methocult and the total number of CFUs was determined 14 days later.
Radiation protection assays were then performed (FIG. 3). Cells were treated with ON 01210.Na for 3 hours, irradiated, and plated in methocult. The total number of colony forming units was determined 14 days later. […] This compared very favorably when analyzed against protection studies using amifostine as a positive control.
Human bone marrow cells were treated with increasing concentrations of ON 01210.Na for 3 hours, and then irradiated with increasing doses of ionizing radiation. The cells were plated into methocult and the total number of CFUs was determined 14 days later.
When we plotted the survival curve at the optimal concentration of ON 01210.Na (FIG. 3C) we were able to calculate a dose reduction factor (DRF) of 1.6. We also tested the radiation protection activity of amifostine. Amifostine concentrations were selected that closely mimicked the therapeutic plasma concentrations. […] The calculated DRF value of 1.5 was determined from these experiments.

Consider `NCCCNCCSP(=O)(O)O` [amifostine, reference compound], for which, under “amifostine”, the “optimal concentration for radiation protection” value is on record as 0.25 mM. The “dose reduction factor (DRF)” value (amifostine 0.25 mM (optimal)) was determined as 1.5. The “range of concentrations that protected cells” value (data not shown) is recorded as “narrow range of concentrations”.
